The results in this text go back to PubChem BioAssay (NCI).

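Test compounds were applied to cells in 96-well plates for 48 hours at 5 doses. GI50 is the concentration that inhibits growth by half. The concentration for full growth arrest is given as TGI.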 Some results are limits rather than exact numbers.

Holding throughout (assay): DTP human tumour cell line panel, 48 h
The test system of experiment [1] is CAKI-1 renal.
Experiment [2] has as its system EKVX NSCLC.
The subject of experiment [3] is HCT-15 colon.
For experiment [4], the system named is HL-60(TB) leukemia.
For experiment [5], the system named is IGROV1 ovarian.
The subject of experiment [6] is MOLT-4 leukemia.
The subject of experiment [7] is NCI-H23 lung.
For experiment [8], the system named is PC-3 prostate.
The test system of experiment [9] is SF-268 CNS.
Experiment [10] relates to U251 CNS.

Usually GI50 stands for the concentration at which growth is held to half of that of the control. A word on the TGI: it is the concentration giving total growth inhibition. As for `COc1ccc2nc3cccc([N+](=O)[O-])c3c(NCCN(CCO)CCO)c2c1`, the GI50 in [1] was 0.0382 µM; in experiment [2], 0.107 µM; in experiment [3], 0.157 µM; in experiment [4], 0.0235 µM; in experiment [5] it was 0.0329 µM; in experiment [6], 0.0161 µM. Besides, the GI50 in [7] was 0.0202 µM; in experiment [9] it was 0.0332 µM; in [10], 0.021 µM. For the same compound, the TGI in experiment [1] was found to be 0.33 µM; in experiment [2] it was 0.698 µM; in [3], 60.8 µM; in experiment [4], 1.49 µM; in experiment [5], 0.242 µM; in experiment [6] it was 0.136 µM. In addition, the TGI was 0.048 µM in [7], 0.219 µM in [8], 0.234 µM in experiment [9] and 0.136 µM in [10].
For the compound `O=C(CSc1nc2ccc([N+](=O)[O-])cc2[nH]1)Nc1cccc(Cl)c1`, the GI50 in experiment [1] is 2.3 µM; in [2], 2.27 µM; in experiment [3], 3.06 µM; in experiment [4], 3 µM; in [5], 3.1 µM; in [6], 3.2 µM. The GI50 in experiment [7] is 2.26 µM; in [8], 2.63 µM; in experiment [9], 3.04 µM; in experiment [10], 2.6 µM. The TGI in experiment [1] is 10.4 µM; in experiment [2], 12.6 µM; in [3], 15 µM; in experiment [4], 12.2 µM; in [5], 18.3 µM; in experiment [6], 40.4 µM. Moreover, the TGI in experiment [7] turned out to be 9.3 µM; in experiment [8], 16.1 µM; in experiment [9] it was 21.8 µM; in experiment [10], 13.1 µM.
`CCCN(CCC)c1ccc(C=O)cc1`: the GI50 in experiment [1] is 53.2 µM; in [2] it was 30.2 µM; in experiment [3] it was > 84.2 µM; in [4], 27 µM; in [5] it was > 84.4 µM; in experiment [6] it was 29.8 µM. Moreover, the GI50 in [7] is 36.9 µM; in [8], 38.1 µM; in [9] it was 53.2 µM; in experiment [10], 42 µM. The TGI in experiment [1] is > 100 µM; in [2], > 100 µM; in experiment [3] it was > 100 µM; in experiment [4] it was > 84 µM; in experiment [5], > 100 µM; in [6], > 100 µM. In addition, the TGI in experiment [7], in experiment [8], in [9] and in [10] was > 100 µM in each case.
On to `CN(C)c1ccc(/C=C(\C#N)c2cc3ccccc3n2C)cc1`, for which the GI50 was 0.0856 µM in experiment [1]; 0.636 µM in experiment [2]; 0.0687 µM in experiment [3]; 0.0931 µM in experiment [4]; 0.143 µM in experiment [5]; 0.32 µM in [6]. Besides, the GI50 was 0.56 µM in experiment [7], 0.204 µM in [8], 2.18 µM in experiment [9] and 0.357 µM in experiment [10]. Further, the TGI in [1], in experiment [2], in [3], in experiment [5], in experiment [6] and in experiment [7] was > 100 µM in each case. In addition, the TGI in experiment [8], in experiment [9] and in [10] was > 100 µM throughout.
`Nc1ccccc1/C=N\Nc1ccccc1`: the GI50 was 1.02 µM in [1]; 77.1 µM in experiment [2]; 5.13 µM in [3]; 1.78 µM in experiment [4]; > 100 µM in experiment [5]; 26.3 µM in experiment [6]. Besides, the GI50 was > 100 µM in experiment [7], 3.08 µM in [8], > 100 µM in experiment [9] and > 100 µM in experiment [10]. Also, the TGI in experiment [1] is > 100 µM; in experiment [2], > 100 µM; in [3], > 100 µM; in experiment [4], 29.3 µM; in [5], > 100 µM; in experiment [6], > 100 µM. For the same compound, the TGI in experiment [7], in [8], in experiment [9] and in experiment [10] was > 100 µM throughout.
As to `O=C(O)CN(CC(=O)O)Cc1cc2c(cc1O)Oc1cc(O)c(CN(CC(=O)O)CC(=O)O)cc1C21OC(=O)c2ccccc21`, the TGI in experiment [1], in experiment [2], in experiment [3], in experiment [4], in [5] and in experiment [6] was > 100 µM in each case. Besides, the TGI in [7], in experiment [8], in experiment [9] and in experiment [10] was > 100 µM each time.
Turning to `CC(C)c1ccc2c(N=Nc3ccc(S(N)(=O)=O)cc3)c(O)[nH]c2c1`, the GI50 in experiment [1] is 24.9 µM; in [2], > 16.6 µM; in experiment [3], > 22.6 µM; in experiment [4] it was > 25 µM; in [5] it was > 15.5 µM; in [6], > 25 µM. Further, the GI50 in [7] is 11.1 µM; in experiment [8], > 17.1 µM; in experiment [9] it was 7.52 µM; in experiment [10], 5.09 µM. In addition, the TGI in [1], in experiment [2], in [3], in experiment [4], in experiment [5] and in [6] was > 25 µM each time. For the same compound, the TGI in experiment [7] was > 25 µM; in experiment [8], > 25 µM; in experiment [9] it was > 20.2 µM; in [10], > 17.4 µM.
On to `O=C(CCCCCCC(=O)N/N=C/c1ccc(N(c2ccccc2)c2ccccc2)cc1)NO`, for which the GI50 was 0.201 µM in experiment [1]; 3.82 µM in experiment [2]; 2.69 µM in experiment [3]; 2.64 µM in [4]; 0.505 µM in experiment [5]; 1.88 µM in [6]. The GI50 is 2.41 µM in experiment [7], 2.39 µM in experiment [8], 3.27 µM in experiment [9] and 1.75 µM in experiment [10]. Further, the TGI in experiment [1] was 1.24 µM; in experiment [2], 15.2 µM; in experiment [3] it was 12 µM; in experiment [4] it was 7.57 µM; in experiment [5], 2.74 µM; in experiment [6], 10.3 µM. Further, the TGI amounted to 10.7 µM in experiment [7], 10.7 µM in experiment [8], 13.6 µM in experiment [9] and 4.46 µM in [10].
